One assay deals with HCT116. The experiment in a line: Cytotoxic MTS assay, HCT116. It counts as cell-based. As to conditions: Homo sapiens, HCT-116, 72 h, colorectal tumor. The source says:
(§1) Cytotoxic activity of all synthesized compounds was investigated in vitro against eight human cancer cell lines and two non-tumor fibroblasts using the standard MTS test (Table 1). The cancer cell lines were derived from T-lymphoblastic leukemia CCRF-CEM, leukemia K562 and their multiresistant counterparts expressing P-glycoprotein, MRP1 and LRP proteins (CEM-DNR, K562-TAX), solid tumors including lung (A549) and colon (HCT116, HCT116p53-/-) carcinomas, osteosarcoma cell line (U2OS), and for comparison, tests were performed on two human non-cancer fibroblast cell lines (BJ, MRC-5).
(§2) Biological assays were performed in concordance with our previous publications [[29], [58]; [60]; [61]]. All cells (if not indicated otherwise) were purchased from the American Tissue Culture Collection (ATCC). The CCRF-CEM line is derived from T lymphoblastic leukemia, evincing high chemosenzitivity, K562 represent cells from an acute myeloid leukemia patient sample with bcr-abl translocation, U2OS line is derived from osteosarcoma, HCT116 is colorectal tumor cell line and its p53 gene knock-down counterpart (HCT116p53-/-, Horizon Discovery Ltd, UK) is a model of human cancers with p53 mutation frequently associated with poor prognosis, A549 line is lung adenocarcinoma. The daunorubicin resistant subline of CCRF-CEM cells (CEM-DNR bulk) and paclitaxel resistant subline K562-TAX were selected in our laboratory by the cultivation of maternal cell lines in increasing concentrations of daunorubicine or paclitaxel, respectively. The CEM-DNR bulk cells overexpress MRP-1 and P-glycoprotein protein, while K562-TAX cells overexpress P-glycoprotein only. Both proteins belong to the family of ABC transporters and are involved in the primary and/or acquired multidrug resistance phenomenon. MRC-5 and BJ cell lines were used as a non-tumor control and represent human fibroblasts. The cells were maintained in nunc/corning 80 cm^2 plastic tissue culture flasks and cultured in cell culture medium according to ATCC or Horizon recommendations (DMEM/RPMI 1640 with 5 g/L glucose, 2 mM glutamine, 100 U/mL penicillin, […] streptomycin, 10% fetal calf serum, and NaHCO3).
(§3) MTS assay was performed at Institute of Molecular and Translational Medicine by robotic platform (HighResBiosolutions). Cell suspensions were prepared and diluted according to the particular cell type and the expected target cell density (25000–35000 cells/mL based on cell growth characteristics). Cells were added by automatic pipetor (30 μL) into 384 well microtiter plates. All tested compounds were dissolved in 100% DMSO and four-fold dilutions of the intended test concentration were added in 0.15 μL aliquots at time zero to the microtiter plate wells by the echoacustic non-contact liquid handler Echo550 (Labcyte). The experiments were performed in technical duplicates and three biological replicates at least. The cells were incubated with the tested compounds for 72 h at 37°C, in a 5% CO2 atmosphere at 100% humidity. At the end of the incubation period, the cells were assayed by using the MTS test. Aliquots (5 μL) of the MTS stock solution were pipetted into each well and incubated for additional 1–4 h. After this incubation period, the optical density (OD) was measured at 490 nm with an Envision reader (Perkin Elmer). Tumor cell survival (TCS) was calculated by using the following equation: TCS = (ODdrug-exposed well/mean ODcontrol wells) × 100%. The IC50 value, the drug concentration that is lethal to 50% of the tumor cells, was calculated from the appropriate dose-response curves in Dotmatics software.
(In general: Formazan colour is commonly taken as a measure of viable cells.)
In general, IC50 refers to the point on the concentration scale where inhibition reaches its midpoint. A high value points to lower potency. Compound `C=C(Cn1cc(CN)nn1)[C@@H]1CC[C@]2(C(=O)O)CC[C@]3(C)C(CCC4[C@@]5(C)CC[C@H](OC(C)=O)C(C)(C)C5CC[C@]43C)C12` (stereo partly drawn) [Compound 9h] came in with an IC50 of 32 µM.
`C=C(Cn1cc(-c2ccc(C(C)(C)C)cc2)nn1)[C@@H]1CC[C@]2(C(=O)O)CC[C@]3(C)C(CCC4[C@@]5(C)CC[C@H](O)C(C)(C)C5CC[C@]43C)C12` (stereo partly drawn) [Compound 11f] gave an IC50 of 36.7 µM.
On the same count and under the same terms, under `C=C(Cn1cc(C2CCCC2)nn1)[C@@H]1CC[C@]2(C(=O)O)CC[C@]3(C)C(CCC4[C@@]5(C)CC[C@H](OC(C)=O)C(C)(C)C5CC[C@]43C)C12` (stereo partly drawn) [Compound 9g] stands 38.3 µM.

For the next assay, the system named is MRC-5. Put plainly: Cytotoxic MTS assay, MRC-5 fibroblasts. The conditions noted are these: Homo sapiens, MRC5, 72 h, non-tumor fibroblasts. The assay is classed as cell-based.
Source text: as §1, §2, §3
`C=C(Cn1cc(CN)nn1)[C@@H]1CC[C@]2(C(=O)O)CC[C@]3(C)C(CCC4[C@@]5(C)CC[C@H](OC(C)=O)C(C)(C)C5CC[C@]43C)C12` (stereo partly drawn) [Compound 9h] gave a half-inhibitory concentration (IC50) above 50 µM.
On the same count and under the same terms, under `C=C(Cn1cc(-c2ccc(C(C)(C)C)cc2)nn1)[C@@H]1CC[C@]2(C(=O)O)CC[C@]3(C)C(CCC4[C@@]5(C)CC[C@H](O)C(C)(C)C5CC[C@]43C)C12` (stereo partly drawn) [Compound 11f] stands above 50 µM; under `C=C(Cn1cc(C2CCCC2)nn1)[C@@H]1CC[C@]2(C(=O)O)CC[C@]3(C)C(CCC4[C@@]5(C)CC[C@H](OC(C)=O)C(C)(C)C5CC[C@]43C)C12` (stereo partly drawn) [Compound 9g], above 50 µM.

The subject of another assay is HCT116p53-/-. The experiment in a line: Cytotoxic MTS assay, HCT116p53-/-. The assay is classed as cell-based. As to conditions: Homo sapiens, 72 h, p53 knock-down colorectal tumor.
Source text: as §1, §2, §3
For the compound `C=C(Cn1cc(CN)nn1)[C@@H]1CC[C@]2(C(=O)O)CC[C@]3(C)C(CCC4[C@@]5(C)CC[C@H](OC(C)=O)C(C)(C)C5CC[C@]43C)C12` (stereo partly drawn) [Compound 9h], the IC50 is above 50 µM.
On the same count and under the same terms, the figure for `C=C(Cn1cc(-c2ccc(C(C)(C)C)cc2)nn1)[C@@H]1CC[C@]2(C(=O)O)CC[C@]3(C)C(CCC4[C@@]5(C)CC[C@H](O)C(C)(C)C5CC[C@]43C)C12` (stereo partly drawn) [Compound 11f] is above 50 µM; for `C=C(Cn1cc(C2CCCC2)nn1)[C@@H]1CC[C@]2(C(=O)O)CC[C@]3(C)C(CCC4[C@@]5(C)CC[C@H](OC(C)=O)C(C)(C)C5CC[C@]43C)C12` (stereo partly drawn) [Compound 9g] it is 47.6 µM.

The subject of a further assay is U2OS. Put plainly: Cytotoxic MTS assay, U2OS. As to conditions: Homo sapiens, 72 h, osteosarcoma. The assay is classed as cell-based.
Source text: as §1, §2, §3
The compound `C=C(Cn1cc(CN)nn1)[C@@H]1CC[C@]2(C(=O)O)CC[C@]3(C)C(CCC4[C@@]5(C)CC[C@H](OC(C)=O)C(C)(C)C5CC[C@]43C)C12` (stereo partly drawn) [Compound 9h] showed a half-inhibitory concentration (IC50) of 30.6 µM.
Compound `C=C(Cn1cc(-c2ccc(C(C)(C)C)cc2)nn1)[C@@H]1CC[C@]2(C(=O)O)CC[C@]3(C)C(CCC4[C@@]5(C)CC[C@H](O)C(C)(C)C5CC[C@]43C)C12` (stereo partly drawn) [Compound 11f] returned an IC50 above 50 µM.
Same read-out and setting: under `C=C(Cn1cc(C2CCCC2)nn1)[C@@H]1CC[C@]2(C(=O)O)CC[C@]3(C)C(CCC4[C@@]5(C)CC[C@H](OC(C)=O)C(C)(C)C5CC[C@]43C)C12` (stereo partly drawn) [Compound 9g] stands 44.1 µM.

In a further assay the test system is K562. Put plainly: Cytotoxic MTS assay, K562. It counts as cell-based. The conditions noted are these: Homo sapiens, 72 h, leukemia.
Source text: as §1, §2, §3
`C=C(Cn1cc(CN)nn1)[C@@H]1CC[C@]2(C(=O)O)CC[C@]3(C)C(CCC4[C@@]5(C)CC[C@H](OC(C)=O)C(C)(C)C5CC[C@]43C)C12` (stereo partly drawn) [Compound 9h] showed an IC50 above 50 µM.
On the same count and under the same terms, the figure for `C=C(Cn1cc(-c2ccc(C(C)(C)C)cc2)nn1)[C@@H]1CC[C@]2(C(=O)O)CC[C@]3(C)C(CCC4[C@@]5(C)CC[C@H](O)C(C)(C)C5CC[C@]43C)C12` (stereo partly drawn) [Compound 11f] is above 50 µM; for `C=C(Cn1cc(C2CCCC2)nn1)[C@@H]1CC[C@]2(C(=O)O)CC[C@]3(C)C(CCC4[C@@]5(C)CC[C@H](OC(C)=O)C(C)(C)C5CC[C@]43C)C12` (stereo partly drawn) [Compound 9g] it is 43.6 µM.

The next assay has as its system CCRF-CEM. The experiment in a line: Cytotoxic MTS assay, CCRF-CEM. The assay is classed as cell-based. As to conditions: Homo sapiens, 72 h, T-lymphoblastic leukemia.
Source text: as §1, §2, §3
In turn, `C=C(Cn1cc(CN)nn1)[C@@H]1CC[C@]2(C(=O)O)CC[C@]3(C)C(CCC4[C@@]5(C)CC[C@H](OC(C)=O)C(C)(C)C5CC[C@]43C)C12` (stereo partly drawn) [Compound 9h] displayed an IC50 of 20.2 µM.
As for `C=C(Cn1cc(-c2ccc(C(C)(C)C)cc2)nn1)[C@@H]1CC[C@]2(C(=O)O)CC[C@]3(C)C(CCC4[C@@]5(C)CC[C@H](O)C(C)(C)C5CC[C@]43C)C12` (stereo partly drawn) [Compound 11f], the IC50 was above 50 µM.
Same read-out and setting: under `C=C(Cn1cc(C2CCCC2)nn1)[C@@H]1CC[C@]2(C(=O)O)CC[C@]3(C)C(CCC4[C@@]5(C)CC[C@H](OC(C)=O)C(C)(C)C5CC[C@]43C)C12` (stereo partly drawn) [Compound 9g] stands 26.2 µM.

In the next assay the test system is K562-TAX. The experiment in a line: Cytotoxic MTS assay, K562-TAX. The conditions noted are these: Homo sapiens, 72 h, paclitaxel resistant subline of K562. It counts as cell-based.
Source text: as §1, §2, §3
The compound `C=C(Cn1cc(CN)nn1)[C@@H]1CC[C@]2(C(=O)O)CC[C@]3(C)C(CCC4[C@@]5(C)CC[C@H](OC(C)=O)C(C)(C)C5CC[C@]43C)C12` (stereo partly drawn) [Compound 9h] had an IC50 above 50 µM.
Compound `C=C(Cn1cc(-c2ccc(C(C)(C)C)cc2)nn1)[C@@H]1CC[C@]2(C(=O)O)CC[C@]3(C)C(CCC4[C@@]5(C)CC[C@H](O)C(C)(C)C5CC[C@]43C)C12` (stereo partly drawn) [Compound 11f] gave an IC50 of 16 µM.
As to `C=C(Cn1cc(C2CCCC2)nn1)[C@@H]1CC[C@]2(C(=O)O)CC[C@]3(C)C(CCC4[C@@]5(C)CC[C@H](OC(C)=O)C(C)(C)C5CC[C@]43C)C12` (stereo partly drawn) [Compound 9g], the midpoint of inhibition, the IC50, lay at 29.1 µM.

The next assay concerns BJ. The experiment in a line: Cytotoxic MTS assay, BJ fibroblasts. The conditions noted are these: Homo sapiens, 72 h, non-tumor fibroblasts. It counts as cell-based.
Source text: as §1, §2, §3
Compound `C=C(Cn1cc(CN)nn1)[C@@H]1CC[C@]2(C(=O)O)CC[C@]3(C)C(CCC4[C@@]5(C)CC[C@H](OC(C)=O)C(C)(C)C5CC[C@]43C)C12` (stereo partly drawn) [Compound 9h] returned an IC50 above 50 µM.
Still for that read-out and setting: under `C=C(Cn1cc(-c2ccc(C(C)(C)C)cc2)nn1)[C@@H]1CC[C@]2(C(=O)O)CC[C@]3(C)C(CCC4[C@@]5(C)CC[C@H](O)C(C)(C)C5CC[C@]43C)C12` (stereo partly drawn) [Compound 11f] stands above 50 µM; under `C=C(Cn1cc(C2CCCC2)nn1)[C@@H]1CC[C@]2(C(=O)O)CC[C@]3(C)C(CCC4[C@@]5(C)CC[C@H](OC(C)=O)C(C)(C)C5CC[C@]43C)C12` (stereo partly drawn) [Compound 9g], above 50 µM.

The next assay relates to CEM-DNR. The experiment in a line: Cytotoxic MTS assay, CEM-DNR. As to conditions: Homo sapiens, 72 h, daunorubicin resistant subline of CCRF-CEM. It counts as cell-based.
Source text: as §1, §2, §3
As to `C=C(Cn1cc(CN)nn1)[C@@H]1CC[C@]2(C(=O)O)CC[C@]3(C)C(CCC4[C@@]5(C)CC[C@H](OC(C)=O)C(C)(C)C5CC[C@]43C)C12` (stereo partly drawn) [Compound 9h], 28.3 µM corresponded to half-maximal inhibition (IC50).
Still for that read-out and setting: under `C=C(Cn1cc(-c2ccc(C(C)(C)C)cc2)nn1)[C@@H]1CC[C@]2(C(=O)O)CC[C@]3(C)C(CCC4[C@@]5(C)CC[C@H](O)C(C)(C)C5CC[C@]43C)C12` (stereo partly drawn) [Compound 11f] stands 13.7 µM; under `C=C(Cn1cc(C2CCCC2)nn1)[C@@H]1CC[C@]2(C(=O)O)CC[C@]3(C)C(CCC4[C@@]5(C)CC[C@H](OC(C)=O)C(C)(C)C5CC[C@]43C)C12` (stereo partly drawn) [Compound 9g], 30.8 µM.

The next assay deals with A549. The experiment in a line: Cytotoxic MTS assay, A549. As to conditions: Homo sapiens, 72 h, lung adenocarcinoma. It counts as cell-based.
Source text: as §1, §2, §3
Compound `C=C(Cn1cc(CN)nn1)[C@@H]1CC[C@]2(C(=O)O)CC[C@]3(C)C(CCC4[C@@]5(C)CC[C@H](OC(C)=O)C(C)(C)C5CC[C@]43C)C12` (stereo partly drawn) [Compound 9h] displayed an IC50 of 30.5 µM.
`C=C(Cn1cc(-c2ccc(C(C)(C)C)cc2)nn1)[C@@H]1CC[C@]2(C(=O)O)CC[C@]3(C)C(CCC4[C@@]5(C)CC[C@H](O)C(C)(C)C5CC[C@]43C)C12` (stereo partly drawn) [Compound 11f] gave an IC50 above 50 µM.
On the same count and under the same terms, the figure for `C=C(Cn1cc(C2CCCC2)nn1)[C@@H]1CC[C@]2(C(=O)O)CC[C@]3(C)C(CCC4[C@@]5(C)CC[C@H](OC(C)=O)C(C)(C)C5CC[C@]43C)C12` (stereo partly drawn) [Compound 9g] is above 50 µM.

(Values after publication PMC5291411, “Cytotoxic conjugates of betulinic acid and substituted triazoles prepared by Huisgen Cycloaddition from 30-azidoderivatives” (PLoS ONE, 2017).)
